Data as given in patent publication US6796312B2, “Process and apparatus for the removal of toxic components of tobacco smoke and the standardization of the health hazards related to those components” (priority 2001, dated 2004).
Where two headings read alike, the source gives them in different places.

Assays:
[1] = tested on: polymorphonuclear neutrophils; conditions: cited from earlier work
[2] = tested on: granular masses and polymorphonuclear neutrophils; conditions: cited from earlier work
[3] = tested on: peripheral inflammatory cells of oral fluid-cell harvests; type: cell-based, human
[4] = tested on: human oral fluid-cell harvests; assay: cells; type: cell-based
[5] = tested on: myeloperoxidase (verdoperoxidase); conditions: cited from earlier work
myeloperoxidase = biological target: T1, myeloperoxidase (Homo sapiens, UniProt P05164); assay: NADH2-NDGA-myeloperoxidase spectrophotometric assay of sputum / oral fluid-cell harvest supernatant extracts; type: biochemical; conditions: for IC50: read-out: concentration that produces fifty (50) percent inhibition of myeloperoxidase
T1 construct: Homogenates were centrifuged at 1,300×g for ten (10) minutes and the supernatant extracts were kept during the course of analysis; from tissue; host or cells: human sputum / oral fluid-cell harvest (neutrophil-rich) homogenate supernatants
T1 sequence (P05164 49-745): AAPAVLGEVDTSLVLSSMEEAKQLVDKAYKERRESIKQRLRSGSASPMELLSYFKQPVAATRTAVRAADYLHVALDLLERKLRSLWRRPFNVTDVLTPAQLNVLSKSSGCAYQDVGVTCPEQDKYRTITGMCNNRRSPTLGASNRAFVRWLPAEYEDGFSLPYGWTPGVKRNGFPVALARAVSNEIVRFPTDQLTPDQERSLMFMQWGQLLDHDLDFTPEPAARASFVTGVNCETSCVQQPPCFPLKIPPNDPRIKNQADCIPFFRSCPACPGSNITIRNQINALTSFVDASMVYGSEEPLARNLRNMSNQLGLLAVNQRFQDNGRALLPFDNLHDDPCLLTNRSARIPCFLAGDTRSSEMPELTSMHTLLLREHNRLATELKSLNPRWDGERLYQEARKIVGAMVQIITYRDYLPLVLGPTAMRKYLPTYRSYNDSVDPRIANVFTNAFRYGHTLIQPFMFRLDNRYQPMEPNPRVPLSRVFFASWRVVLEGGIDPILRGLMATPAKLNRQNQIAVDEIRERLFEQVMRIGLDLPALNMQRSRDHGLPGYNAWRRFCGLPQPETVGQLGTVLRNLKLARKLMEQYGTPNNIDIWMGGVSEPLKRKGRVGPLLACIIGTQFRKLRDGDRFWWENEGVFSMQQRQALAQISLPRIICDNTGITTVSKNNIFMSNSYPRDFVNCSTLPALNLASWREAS
Method: Aliquots of fresh human oral fluid-cell harvests as exemplified above or fresh human sputum collected by the donors over a twenty-four (24) hour period were disrupted employing either Ten Broeck glass homogenizers or the Virtis homogenizer. Homogenates were centrifuged at 1,300×g for ten (10) minutes and the supernatant extracts were kept during the course of analysis at zero degrees centigrade (0° C.). Other reactants were incubated at thirty-five degrees centigrade (35° C.). Reduced nicotinamide-adenine dinucleotide oxidase and norhydroguaiaretic acid-myeloperoxidase activities were followed at 340 mμ or (nm) employing the Beckman Model DU Spectrophotometer temperature regulated at thirty-five degrees centigrade (35° C.). All specific reactions were run as duplicate assays.
Although this oxidation was very small under the conditions of experiment, an interaction correction factor was determined and applied to all reduced nicotinamide-adenine dinucleotide-nordihydroguaiaretic acid-mycloperoxidase assay reactions.
The velocity constants for the myeloperoxidase reactions behaved and were computed in accord with zero order reaction kinetics. […] In most instances, the activities followed first order reaction kinetics for a short interval and then ceased abruptly. The latter may be due to the presence or accumulation of variable concentrations of an unidentified inhibitor or inhibitors in the supernatants. Since in all cases the oxidase activities were very slow relative to the myeloperoxidase activities, the difference in optical density over the course of the reactions (up to ten (10) minutes) for the oxidase system were computed in the same manner as the data for the rapid myeloperoxidase system. Thus, all velocity constants were expressed in μ Moles of reduced nicotinamide-adenine dinucleotide oxidized per minute per ml. of oral fluid-cell harvest or sputum. The small oxidase activities were applied as a correction factor in the computation of all myeloperoxidase velocity constants.
The pH optimum of the myeloperoxidase system was determined. When fresh nordihydroguaiaretic acid solutions were prepared and interaction rates with reduced nicotinamide-adenine dinucleotide were subtracted as controls from oral lavage and sputum supernatant myeloperoxidase activities, the net velocity constants were zero (0). On the other hand, five (5) hour old nordihydroguaiaretic acid solutions yielded optimal activities at approximately pH 7.4. Subsequent experiments uniformly were carried out at pH 7.0 using five (5) hour old solutions to minimize the rates of the auto oxidation of nordihydroguaiaretic acid and oxidation of reduced nicotinamide-adenine dinucleotide by nordihydroguaiaretic acid when employing alkaline pH's.

[6] = Homo sapiens, read-out: inhibition of aerobic (d) glucose dependent metabolism
[7] = Homo sapiens, read-out: inhibition of aerobic endogenous metabolism
[8] = Homo sapiens, read-out: inhibition of anaerobic glucose metabolism
[9] = with added 0.024 Molar hydrogen peroxide
[10] = Homo sapiens, read-out: inhibition of anaerobic glucolysis

In the case of O=C(O)CI [iodoacetate], the “inhibition of exogenous hydrogen peroxide-dependent reaction in polymorphonuclear neutrophils” value [1] is given as “inhibited completely” and the “inhibition of endogenous reactions in granular masses and polymorphonuclear neutrophils” value [2] is given as “inhibited completely”.

With C=CC=O [Acrolein, acrolein] the “peripheral inflammatory cell function” value [3] was “impaired to virtual total loss of function”, the inhibition at 1 µM [4, 6] was 49% and the inhibition at 2.5 µM [4, 6] was 81%. The inhibition at 1 µM [4, 7] was 48%, the inhibition at 2.5 µM [4, 7] was 66% and the inhibition at 10 µM [4, 8] was 18%. The inhibition at 25 µM [4, 8] was 43%.

With [O]N=O [Nitrogen dioxide, nitrogen dioxide] the “peripheral inflammatory cell function” value [3] was “enhanced peripheral inflammatory cell function” and the “inhibition of aerobic metabolism” value [4] was “variable and, at times, doubtful inhibitions”.

In the case of [Cu+2] [cupric ion], the “inhibition of exogenous hydrogen peroxide-dependent reaction in polymorphonuclear neutrophils” value ([1]; low concentrations) is listed as “inhibited completely” and the “inhibition of endogenous reactions in granular masses and polymorphonuclear neutrophils” value ([2]; low concentrations) is listed as “inhibited completely”.

In the case of NO [Hydroxylamine, hydroxylamine], the “inhibition of hydrogen peroxide-dependent nitro-blue tetrazolium reducing enzyme activity” value [1, 9] is listed as “inhibited markedly”, the “inhibition of myeloperoxidase activity” value ([5]; Agner 1941, 1958) is listed as “inhibited” and the “inhibition of endogenous reactions in polymorphonuclear neutrophils and granular masses” value [2] is listed as “not inhibited”. For the same molecule, the IC50 (myeloperoxidase; supernatant extracts) was 0.33 mM.

CC=O [Acetaldehyde, acetaldehyde] gave an inhibition at 100 µM [4, 6] of 25%, an inhibition at 1000 µM [4, 6] of 60% and an inhibition at 100 µM [4, 10] of 10%. It also gave an inhibition at 1000 µM [4, 10] of 30%.

In the case of OO [Hydrogen peroxide, hydrogen peroxide], the “inhibition of hydrogen peroxide-dependent nitro-blue tetrazolium reducing enzyme activity” value ([1]; 0.15 Molar hydrogen peroxide) is given as “totally” and the “inhibition of endogenous nitro-blue tetrazolium reducing enzyme activity in granular masses” value ([2]; 0.15 Molar hydrogen peroxide) is given as 100%.

With nitric oxide [Nitrogen oxide] the “influence on cell function” value [3] was “did not influence” and the influence on metabolism [4] was “did not influence”.

In the case of [F-].[Na+] [Sodium Flouride, sodium fluoride], the “inhibition of myeloperoxidase activity” value [5] is given as “inhibited” and the IC50 (myeloperoxidase) is given as 63 mM.

B1: crystalline catalase (protein, UniProt P00432 2-527, looked up)
Catalase: ADNRDPASDQMKHWKEQRAAQKPDVLTTGGGNPVGDKLNSLTVGPRGPLLVQDVVFTDEMAHFDRERIPERVVHAKGAGAFGYFEVTHDITRYSKAKVFEHIGKRTPIAVRFSTVAGESGSADTVRDPRGFAVKFYTEDGNWDLVGNNTPIFFIRDALLFPSFIHSQKRNPQTHLKDPDMVWDFWSLRPESLHQVSFLFSDRGIPDGHRHMNGYGSHTFKLVNANGEAVYCKFHYKTDQGIKNLSVEDAARLAHEDPDYGLRDLFNAIATGNYPSWTLYIQVMTFSEAEIFPFNPFDLTKVWPHGDYPLIPVGKLVLNRNPVNYFAEVEQLAFDPSNMPPGIEPSPDKMLQGRLFAYPDTHRHRLGPNYLQIPVNCPYRARVANYQRDGPMCMMDNQGGAPNYYPNSFSAPEHQPSALEHRTHFSGDVQRFNSANDDNVTQVRTFYLKVLNEEQRKRLCENIAGHLKDAQLFIQKKAVKNFSDVHPEYGSRIQALLDKYNEEKPKNAVHTYVQHGSHLSAREKANL
For B1, the “inhibition of hydrogen peroxide-dependent nitro-blue tetrazolium reducing enzyme activity” value [1, 9] is listed as “inhibited markedly”, the “inhibition of endogenous reactions in polymorphonuclear neutrophils and granular masses” value [2] is listed as “not inhibited” and the “inhibition of myeloperoxidase activity” value (myeloperoxidase; 14 units of crystalline catalase added) is listed as about 50%. The “inhibition of myeloperoxidase activity” value (myeloperoxidase; 41 units of crystalline catalase added) was about 90%.
